Experimental data: patent US7638503B2, “Small molecule stimulators of neuronal growth” (California Institute of Technology, priority 2004, dated 2009)

Tests used:
[1] = system: primary hippocampal neurons; experiment: Hippocampal neuronal growth: neurite outgrowth of cultured primary hippocampal neurons, anti-tau immunostaining, confocal microscopy; format: cell-based, Sprague-Dawley rats; settings: 48 h
Experimental: In certain embodiments, the activity of the compounds provided herein to modulate neuronal growth, can be tested using cultured primary hippocampal neurons. Primary hippocampal neurons are cultured on poly-DL-ornithine-coated coverslips with or without each compound. After 48 h, the neurons are fixed, immunostained with anti-tau antibodies, and examined by confocal fluorescence microscopy. The effect of sulfated tetrasaccharide CS-E on neuronal morphology and growth is illustrated in FIGS. 1A-B. The number of neurites emanating from the cell body was enhanced, and the growth of the major extension was stimulated by 39.3±3.6% relative to the poly-DL-omithine control.
Hippocampal Neuronal Cultures. Hippocampal neuronal cultures were prepared using a modified version of the Goslin and Banker protocol (Goslin, K.; Banker, G. In Culturing Nerve Cells; Banker, G.; Goslin, K.; Eds.; MIT Press: Cambridge, Mass., 1991; pp 251-281). Embryos at the E18 stage were obtained from timed-pregnant Sprague-Dawley rats, and the hippocampus from each embryo was dissected. All the hippocampi from one preparation were transferred to a 15 mL conical tube containing 4.5 mL of ice-cold Calcium and Magnesium Free-Hank's Balanced Salt Solution (CMF-HBSS) (GIBCO). Trypsin (2.5%, no EDTA; GIBCO) was added to 5 mL, and the tissue was digested for 15 min at 37° C. The trypsin solution was removed and the tissue rinsed with 5 mL of CMF-HBSS three times. The tissue was then dissociated in 1 mL of CMF-HBSS by passing through a P1000 pipet tip twenty times. The cells were counted with a hemacytometer and plated on glass coverslips at 80 cells/mm2 and cultivated in minimal Eagle's Medium (MEM) (GIBCO) supplemented with the N2 mixture (GIBCO) and 0.1 mM pyruvate. The cultures were maintained in 5% CO2 at 37° C. Glass coverslips were coated as described by Clement et. al. (Clement, A.M.; Nadanaka, S.; Masayama, K.; Mandl, C.; Sugahara, K.; Faissner, A. J. Biol. Chem. 1998, 273, 28444-28453) Briefly, coverslips were precoated with 0.015 mg/mL poly-DL-ornithine (SIGMA) for 1 h at 37° C./5% CO2, washed three times with double distilled H2O, and coated with 0.5 mg/mL of compounds 1-3 in PBS overnight at 37° C./5% CO2. The coverslips were then washed three times with PBS and flooded with MEM+N2 media.
Immunocytochemistry of Hippocampal Neuronal Cultures. After 48 h in culture, hippocampal neurons on coverslips were used for immunostaining. […]
Morphometric Analysis. For quantitative analysis, 50 cells were analyzed per coverslip. Only cells with neurites longer than one cell body diameter were counted. The length of the longest neurite from stained cells was measured using N1H Image 1.52 software. […]

[2] = system: dorsal root ganglion (DRG) neurons; experiment: Outgrowth of cultured dorsal root ganglion (DRG) neurons from the spinal cord; format: cell-based
Excerpt: (§1) Effect of disaccharide CS-E, tetrasaccharides CS-E, and unsulfated tetrasaccharide on the growth of dopaminergic neurons as well as dorsal root ganglion (DRG) neurons from the spinal cord is illustrated in FIGS. 2A-B and 4A-B, respectively. In certain embodiments, the CS-E tetrasaccharide promoted the outgrowth of cultured dopaminergic and DRG neurons by 30-40% relative to the untreated controls. FIGS. 5 and 7 illustrate binding of tetrasaccharides CS-E, CS-C and disaccharide CS-E to tumor necrosis factor-α and midkine, respectively.

dopaminergic neurons = experiment: Outgrowth of cultured dopaminergic neurons; format: cell-based
Excerpt: as §1

[3] = primary hippocampal neurons on poly-DL-ornithine-coated coverslips with compound

Compound | effect on neuronal outgrowth [1, 3] | outgrowth promoted relative to the untreated controls [2] | outgrowth promoted relative to the untreated controls (dopaminergic neurons) | growth of the major extension stimulated relative to the poly-DL-ornithine control ([1]; primary hippocampal neurons on poly-DL-ornithine-coated coverslips with compound (0.5 mg/mL coating)) [%] | number of neurites emanating from the cell body [1, 3]
Allyl (sodium β-D-glucopyranosyluronate)-(1→3)-4,6-di-O-sodium sulfonato-2-deoxy-2-acetamido-β-D-galactopyranoside [sulfated disaccharide] | no significant effect | – | – | – | –
C=CCO[C@@H]1O[C@H](CO)[C@H](O)[C@H](O[C@@H]2O[C@H](C(=O)[O-])[C@@H](O[C@@H]3O[C@H](CO)[C@H](O)[C@H](O[C@@H]4O[C@H](C(=O)[O-])[C@@H](O)[C@H](O)[C@H]4O)[C@H]3NC(C)=O)[C@H](O)[C@H]2O)[C@H]1NC(C)=O.[Na+].[Na+] [unsulfated tetrasaccharide, Allyl (sodium β-D-glucopyranosyluronate)-(1→3)-(2-deoxy-2-acetamido-β-D-galactopyranosyl)-(1→4)-(sodium β-D-glucopyranosyluronate)-(1→3)-2-deoxy-2-acetamido-β-D-galactopyranoside] | no significant effect | – | – | – | –
C=CCO[C@@H]1O[C@H](COS(=O)(=O)[O-])[C@H](OS(=O)(=O)[O-])[C@H](O[C@@H]2O[C@H](C(=O)[O-])[C@@H](O[C@@H]3O[C@H](COS(=O)(=O)[O-])[C@H](OS(=O)(=O)[O-])[C@H](O[C@@H]4O[C@H](C(=O)[O-])[C@@H](O)[C@H](O)[C@H]4O)[C@H]3NC(C)=O)[C@H](O)[C@H]2O)[C@H]1NC(C)=O.[Na+].[Na+].[Na+].[Na+].[Na+].[Na+] [sulfated tetrasaccharide CS-E, Allyl (sodium β-D-glucopyranosyluronate)-(1→3)-(4,6-di-O-sodiumsulfonato-2-deoxy-2-acetamido-β-D-galactopyranosyl)-(1→4)-(sodium β-D-glucopyranosyluronate)-(1→3)-4,6-di-O-sodium sulfonato-2-deoxy-2-acetamido-β-D-galactopyranoside] | – | 30-40% | 30-40% | 39.3±3.6 | enhanced
